In patent publication US11235001B2, “RUNX inhibitor” (KYOTO UNIVERSITY, priority 2016, dated 2022):
Where two headings read alike, the source gives them in different places.

Columns and labels:
Kasumi-1 = details: Kasumi-1, p53mut(+); for IC50: 48 hours
ROR1 and ROR2 = test: Western blotting of ROR1 and ROR2 in DAOY; assay type: cell-based, human; details: 1 μM, 24 hours
Protocol: Cells were washed twice with ice cold phosphate-buffered saline (PBS) and harvested in protein lysis buffer [50 mM Tris (pH 7.4), 100 mM NaCl, 0.1 mM EDTA, 1 mM phenylmethylsulfonyl fluoride, 1 mM β-glycerophosphate, 2.5 mM sodium pyrophosphate, 1 mM Na3VO4, lx protease inhibitor (Roche) and PhosSTOP (Roche)]. Whole cell extracts were separated by SDS-polyacrylamide gel electrophoresis (SDS-PAGE) and electrotransferred onto polyvinylidene difluoride membranes. Membranes were probed with the following antibodies: anti-Ctip1 antibody (Abcam, ab19487), anti-TRIM24 antibody (Bethyl Laboratories, Inc), anti-RUNX1 antibody (A-2), anti-GAPDH (FL-335), anti-p21 (C-19), anti-Bax (N-20) antibodies (Santa Cruz Biotechnology, Inc.), anti-RUNX2, anti-RUNX3, anti-p53 antibodies (Cell Signaling Technology), anti-CBFβ antibody (FL-182, Santa Cruz Biotechnology, Inc.), anti-cleaved caspase-3 antibody (5A1E, Cell Signaling Technology), anti-PARP antibody (46D11, Cell Signaling Technology). […] Blots were detected using Chemi-Lumi One Super (nacalai tesque, Inc.) and ChemiDoc™ XRS+ Imager (Bio-Rad Laboratories, Inc.), as recommended by the manufacturers. Protein levels were quantified with Image Lab Software (Bio-Rad Laboratories, Inc.).
To DAOY cells, 1 μM Chb-M′ was administered. […] The expression of ROR1 was too weak to be detected.

[1] = tested on: c-kit, phospho-c-Kit, AKT, phosphorylated AKT, Mitf; test: Western blot of KIT signalling, HMC-1.2 mast cells; assay type: cell-based, human; details: HMC-1.2, 10 μM, 18 hours
Protocol: Cells were washed twice with ice cold phosphate-buffered saline (PBS) and harvested in protein lysis buffer [50 mM Tris (pH 7.4), 100 mM NaCl, 0.1 mM EDTA, 1 mM phenylmethylsulfonyl fluoride, 1 mM β-glycerophosphate, 2.5 mM sodium pyrophosphate, 1 mM Na3VO4, lx protease inhibitor (Roche) and PhosSTOP (Roche)]. Whole cell extracts were separated by SDS-polyacrylamide gel electrophoresis (SDS-PAGE) and electrotransferred onto polyvinylidene difluoride membranes. […] Blots were detected using Chemi-Lumi One Super (nacalai tesque, Inc.) and ChemiDoc™ XRS+ Imager (Bio-Rad Laboratories, Inc.), as recommended by the manufacturers. Protein levels were quantified with Image Lab Software (Bio-Rad Laboratories, Inc.).
To the LAD2 cell line and the HMC-1.2 cell line, 10 μM Chb-M′ was administered. After culturing the cells for 18 hours, extracts were obtained from the cells, and the protein expression levels of c-kit, phospho-c-Kit, AKT, phosphorylated AKT, Mitf, and GAPDH were analyzed by the Western blot analysis (see the above-described “Immunoblotting”) using different antibodies. […]

[2] = tested on: Her2, p-Her2, SOS1, p-ERK, ERK, p-AKT, AKT; test: Western blotting of Her2 signalling in MKN45 gastric cancer cells; assay type: cell-based, human; details: 48 hours
[3] = tested on: p53-mutated colon cancer cell line HT29; details: HT29, 72 hours
[4] = tested on: medulloblastoma cell line DAOY; details: DAOY (SHH, TP53-mutated), 48 hours
[5] = tested on: BCL11A, TRIM24, p21, BAX, PUMA, MDM2, PARP, cleaved caspase-3; test: Immunoblotting of p53 pathway and apoptosis proteins in MV4-11 cells; assay type: cell-based, human; details: 1 μM, 24 hours
Protocol: (§1) Cells were washed twice with ice cold phosphate-buffered saline (PBS) and harvested in protein lysis buffer [50 mM Tris (pH 7.4), 100 mM NaCl, 0.1 mM EDTA, 1 mM phenylmethylsulfonyl fluoride, 1 mM β-glycerophosphate, 2.5 mM sodium pyrophosphate, 1 mM Na3VO4, lx protease inhibitor (Roche) and PhosSTOP (Roche)]. Whole cell extracts were separated by SDS-polyacrylamide gel electrophoresis (SDS-PAGE) and electrotransferred onto polyvinylidene difluoride membranes. Membranes were probed with the following antibodies: anti-Ctip1 antibody (Abcam, ab19487), anti-TRIM24 antibody (Bethyl Laboratories, Inc), anti-RUNX1 antibody (A-2), anti-GAPDH (FL-335), anti-p21 (C-19), anti-Bax (N-20) antibodies (Santa Cruz Biotechnology, Inc.), anti-RUNX2, anti-RUNX3, anti-p53 antibodies (Cell Signaling Technology), anti-CBFβ antibody (FL-182, Santa Cruz Biotechnology, Inc.), anti-cleaved caspase-3 antibody (5A1E, Cell Signaling Technology), anti-PARP antibody (46D11, Cell Signaling Technology). For secondary antibodies, anti-rabbit IgG, or anti-mosue IgG HRP-linked antibodies (Cell Signaling Technology) were used. Blots were detected using Chemi-Lumi One Super (nacalai tesque, Inc.) and ChemiDoc™ XRS+ Imager (Bio-Rad Laboratories, Inc.), as recommended by the manufacturers. Protein levels were quantified with Image Lab Software (Bio-Rad Laboratories, Inc.).
Briefly, MV4-11 cells were treated with 1 μM Chb-M′ or Chb-50 for 24 hours. The treated cells were dissolved in the protein lysis buffer. Whole cell extracts were resolved by SDS-polyacrylamide gel electrophoresis (SDS-PAGE) and transferred onto polyvinylidene difluoride membranes. The membranes were probed with each antibody. Blots were detected and quantified. As a control, the cells treated with DMSO were used.

[6] = tested on: c-kit, phospho-c-Kit, AKT, phosphorylated AKT, Mitf; test: Western blot of KIT signalling, LAD2 mast cells; assay type: cell-based, human; details: LAD2, 10 μM, 18 hours
Protocol: as §1
To the LAD2 cell line and the HMC-1.2 cell line, 10 μM Chb-M′ was administered. After culturing the cells for 18 hours, extracts were obtained from the cells, and the protein expression levels of c-kit, phospho-c-Kit, AKT, phosphorylated AKT, Mitf, and GAPDH were analyzed by the Western blot analysis (see the above-described “Immunoblotting”) using different antibodies. AKT is an important signaling protein downstream of c-kit. Mitf is a representative transcriptional driver for c-kit. As a control, DMSO was administered. In the figure, “KIT” indicates c-kit, “pKIT” indicates phosphorylated c-kit, and “pAKT” indicates phosphorylated AKT. As primary antibodies, an anti-c-Kit antibody (Ab81, manufactured by Cell Signaling Technology), an anti-phospho-c-Kit (Tyr719) antibody (manufactured by Cell Signaling Technology), an anti-Akt antibody (manufactured by Cell Signaling Technology), an anti-phospho-Akt antibody (Ser473) (manufactured by Cell Signaling Technology), an anti-Mitf antibody (manufactured by Cosmo Bio), and an anti-GAPDH antibody (0411, manufactured by Santa Cruz Biotechnology, Inc.) were used. As secondary antibodies, an ECL™ anti-mouse IgG horseradish peroxidase-linked whole antibody (manufactured by GE Healthcare) and an ECL™ anti-rabbit IgG linked whole antibody (manufactured by GE Healthcare) were used.

A549 = test: Cell viability, lung adenocarcinoma A549; assay type: cell-based, human; details: A549 (EGFR wild-type p53 wild-type), 48 hours

CN(C)CCCNC(=O)c1cc(NC(=O)c2cc(NC(=O)c3cc(NC(=O)c4cc(NC(=O)CCCNC(=O)c5nc(NC(=O)c6nc(NC(=O)c7cc(NC(=O)c8nc(NC(=O)CCNC(=O)CCCc9ccc(N(CCCl)CCCl)cc9)cn8C)cn7C)cn6C)cn5C)cn4C)cn3C)cn2C)cn1C [Chb-M′]
CI (Fa = 0.5) (Kasumi-1; concomitant use of Chb-M′ and PRIMA-1, Chou-Talalay, CI<1 synergism): 0.156
IC50 (Kasumi-1; read-out: IC50 (μM) of Chb-M′ in concomitant use with PRIMA-1 (5 μM), with 5 μM PRIMA-1): 0.359 µM
IC50 (Kasumi-1; read-out: IC50 (μM) of Chb-M′ single agent administration): > 100 µM
Expression of ROR2 at a protein level (ROR1 and ROR2): suppressed
Expression levels of c-kit and phospho-c-Kit [1]: suppressed
pAKT amount of protein [1]: slight decrease
CI (Fa = 0.5) (KG1a; p53null, concomitant use of Chb-M′ and PRIMA-1, Chou-Talalay, CI<1 synergism): 2.01
IC50 (KG1a; read-out: IC50 (μM) of Chb-M′ in concomitant use with PRIMA-1 (5 μM), p53null, 48 hours, with 5 μM PRIMA-1): > 100 µM
IC50 (KG1a; read-out: IC50 (μM) of Chb-M′ single agent administration, p53null, 48 hours): > 100 µM
Expression of SOS1 (protein) ([2]; MKN45, 0.1 μM, 1 μM, or 10 μM): suppressed
Phosphorylation of Her2 ([2]; MKN45, 0.1 μM, 1 μM, or 10 μM): suppressed
Expression of Her2 protein ([2]; MKN45, 1 μM): suppressed
Phosphorylated forms of ERK protein and AKT protein ([2]; MKN45, 1 μM): suppressed
Total amounts of ERK protein and AKT protein ([2]; MKN45, 1 μM): not changed
IC50 [3]: 2.92 µM
IC50 [4]: 0.812 µM
Cleaved form of PARP and cleaved caspase-3 (apoptosis) [5]: emergence
Protein expression levels of p53 and downstream proteins (p21, BAX) [5]: increased
Protein expression levels of suppressors of p53 (BCL11A and TRIM24) [5]: reduced
Expression of c-kit protein [6]: suppressed
Level of phosphorylated AKT protein [6]: decreased
Protein expression level of Mitf [6]: not affected
Total amount of AKT [6]: not considerably changed
phospho-c-Kit protein [6]: suppressed
IC50 compared with the EGFR inhibitor (gefitinib) (A549): lower IC50 values
